We go through one compound from patent US11427544B2, “Histone deacetylase 6 inhibitors and use thereof” (TAIPEI MEDICAL UNIVERSITY, priority 2016, dated 2022).

Assay [1] deals with PC-3 prostate cancer cell line. Nature of the assay: Antiproliferative activity, PC-3. Format: cell-based, human. As to conditions: Homo sapiens. The protocol: A study was conducted to evaluate the inhibitory activity of compounds of Formula (I) in inhibiting HDAC6, antiproliferative activity of test compounds in suppressing cancer cell growth, and selectivity of inhibiting HDAC6 over other HDAC isoforms.
The study was performed according to the protocol reported in Hsieh et al., Cell Death and Disease, 2014, April; 5:e1166.
Shown in Table 2 below are antiproliferative activities (measured by their half maximal concentration for inhibiting cell growth, i.e., GI50) of the test compounds against various cancer cell lines.

Another assay relates to HCT116 Colorectal. Nature of the assay: Tumor growth inhibition, HCT116 xenograft. Type of assay: in vivo, athymic nude mice. The conditions noted are these: qd, intraperitoneal. The protocol: An in vivo study was conducted to evaluate the efficacy of compounds of Formula (I) in suppressing tumor growth in multiple human cancer types.
Eight-week-old athymic nude mice were group-housed under conditions of constant photoperiod (12 h light/12 h dark at 21-23° C. and 60-85% humidity) with ad libitum access to sterilized food and water. All animal experiments followed ethical standards, and protocols were reviewed and approved by the Animal Use and Management Committee of National Taiwan University. Each mouse was inoculated subcutaneously with 1×10^6˜1×10^7 human cancer cells in a total volume of 0.1 mL serum-free medium containing 50% Matrigel (BD Biosciences). As tumors became established (˜100 mm^3), mice were randomized to various groups to be treated with pre-determined materials (n=6-8/group): (i) control group: 0.5% DMSO/0.5% Cremophor/90% D5W and (ii) treatment groups: Compounds 12 and 28 at pre-determined doses daily. Mice received treatment by intraperitoneal injection for the duration of the study. Tumors were measured weekly using calipers. Tumor size, in mm^3, was calculated according to the formula: Tumor volume=(w^2×l)/2, where w and 1 respectively represent the width and length (both in mm) of the tumor.

Assay [2] deals with scopolamine-induced memory deficit. The assay is described as follows: Water maze test, scopolamine-treated rats. The conditions noted are these: gavage twice daily for seven days; scopolamine 1.5 mg/kg i.p. Format: in vivo. The protocol:
An in vivo study was conducted to evaluate the efficacy of compounds of Formula (I) in improving memory deficits associated with Alzheimer's disease.
Compound 12, Compound 28, suberanilohydroxamic acid (50 mg/kg) or vehicle was given to rats by gavage twice daily for seven days prior to behavioral experiments. On the day conducting a behavior assessment, rats in all groups except the control group were administered scopolamine (1.5 mg/kg) by intraperitoneal injection for 30 minutes before the assessment, then a water maze test or an elevated plus maze test was performed.

The subject of assay [3] is Caspase-3, Caspase-8, and Caspase-9 cleavage in RPMI8226 and NCI-H929. The assay is described as follows: Cleavage of Caspase-3, -8 and -9 in multiple myeloma cells, combined with bortezomib. Type of assay: cell-based, human. The protocol: A study was conducted to evaluate the effect of a compound of Formula (I) combined with bortezomib in increasing cleavage of Caspase-3, Caspase-8, and Caspase-9 in multiple myeloma cells.
Cells (1×10^6) were incubated for 10 minutes at 4° C. in a lysis buffer solution in a culture vessel, and then scraped off the culture vessel, incubated on ice for another 10 minutes, and centrifuged at 17,000×g for 30 minutes at 4° C. Protein samples ([…]) were electrophoresed on SDS gels and transferred onto a nitrocellulose membrane, which was blocked by incubation with 5% fat-free milk in phosphate-buffered saline (PBS) for 30 minutes at room temperature. Immunoblotting was performed by overnight incubation at 4° C. with primary antibodies in PBS, followed by incubation for 1 hour at room temperature with horseradish peroxidase (HRP)-conjugated secondary antibodies, then bound antibodies were measured using enhanced chemiluminescence (ECL) reagent (Advansta Corp., Menlo Park, Calif., USA) and exposure to photographic film.
The study was performed according to the protocol reported in Yang et al., Journal of Molecular Medicine, 2014, November; 92(11):1147-1158.

Structures are written as SMILES.

One may read the GI50 as the concentration at which growth is held to half of that of the control. Turning to `O=C(NO)c1ccc(CNc2cccc3cccnc23)cc1` [Compound 28, N-hydroxy-4-((quinolin-8-ylamino)methyl)benzamide], the GI50 in assay [1] came to 3.4 ± 0.13 µM. In addition, the “% TGI” value with HCT116 Colorectal (50 mg/kg) turned out to be 9.1%; in the assay on HCT116 Colorectal (100 mg/kg), 44.4%. The “time spent in the correct quadrant (water maze)” value in assay [2] is recorded as “markedly reverse this effect”. Also, the “cleavage of Caspase-3, Caspase-8, and Caspase-9” value in assay [3] is “increased cleavage of Caspase-3, Caspase-8, and Caspase-9”.
